Source: patent US8354403B2, “Pyrrolidine derived beta 3 adrenergic receptor agonists” (Merck Sharp & Dohme Corp., priority 2009, dated 2013)
Where two headings read alike, the source gives them in different places. Blank lines part the entries; values can stand above or below the molecule they belong to.

Molecular target: T1, human β3 adrenergic receptor (Homo sapiens, UniProt P13945)
T1 construct: expressed in transfected cells; host or cells: Chinese hamster ovary (CHO) cells, stably transfected
T1 sequence (P13945 whole entry): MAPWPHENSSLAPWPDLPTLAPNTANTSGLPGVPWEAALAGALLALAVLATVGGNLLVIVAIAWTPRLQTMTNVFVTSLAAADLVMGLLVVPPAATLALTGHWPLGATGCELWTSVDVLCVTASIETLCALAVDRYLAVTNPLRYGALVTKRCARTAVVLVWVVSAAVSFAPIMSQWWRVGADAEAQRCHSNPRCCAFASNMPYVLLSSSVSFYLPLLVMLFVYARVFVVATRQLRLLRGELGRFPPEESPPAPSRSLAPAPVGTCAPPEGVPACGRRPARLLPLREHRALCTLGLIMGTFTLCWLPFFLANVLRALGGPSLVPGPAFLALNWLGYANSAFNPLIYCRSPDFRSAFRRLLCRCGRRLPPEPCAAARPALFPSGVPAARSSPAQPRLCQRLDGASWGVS
Experiment: Beta-3 agonist in vitro functional assay: cAMP production (LANCE TR-FRET) in CHO cells stably transfected with the cloned β3 receptor
Format: cell-based
Settings: read-out: Human β3 agonist functional activity
In short: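 CHO cells stably expressing the cloned receptor, in HEPES-buffered HBSS with BSA and 0.6 mM IBMX, 6,000 cells/well, exposed to compound for 30 min at RT. cAMP read by LANCE TR-FRET against a cAMP standard curve. Isoproterenol defines maximal stimulation.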

[1] = Table 12, human β3 functional activity given as ranges
[2] = Table 9, Beta-3 agonist in vitro functional assay
[3] = Table 8, Beta-3 agonist in vitro functional assay
[4] = Table 7, cAMP, CHO cells, ranges as given for Tables 6 and 7
[5] = Table 10, Beta-3 agonist in vitro functional assay

Compound: O=C(c1ccc(C[C@@H]2CC[C@H]([C@H](O)c3ccccc3)N2)cc1)N1CCC(c2nc(-c3cccnc3)no2)CC1 [Example 82]
EC50 (Table 5, cAMP, CHO cells): 100 to 999 nM

Compound: O=C(c1ccc(C[C@@H]2CC[C@H]([C@H](O)c3ccccc3)N2)cc1)N1CCN(c2ccncc2)CC1 [Example 356]
EC50 [2]: 100 to 999 nM

Compound: O=C(c1ccc(C[C@@H]2CC[C@H]([C@H](O)c3ccccc3)N2)cc1)N1CCN(Cc2cnn(-c3ccccc3)n2)CC1 [Example 408]
EC50 [2]: 1 to 9.9 nM

Compound: O=C(c1ccc(C[C@@H]2CC[C@H]([C@H](O)c3ccccc3)N2)cc1)N1CCCC(S(=O)(=O)c2ncc(Br)s2)C1 (stereo partly drawn) [Example 38]
EC50 (Table 4, cAMP, CHO cells): 10 to 99.9 nM

Compound: COc1cccnc1CN1CCN(C(=O)c2ccc(C[C@@H]3CC[C@H]([C@H](O)c4ccccc4)N3)cc2)CC1 [Example 414]
EC50 [2]: 10 to 99.9 nM

Compound: O=C(c1ccc(C[C@@H]2CC[C@H]([C@H](O)c3ccccc3)N2)cc1)N1CC2CC(n3ncnn3)CC2C1 (stereo partly drawn) [Example 19]
EC50 (Table 4, cAMP, CHO cells): 10 to 99.9 nM

Compound: O=C(c1ccc(C[C@@H]2CC[C@H]([C@H](O)c3ccccc3)N2)cc1)N1CCC2c3ccccc3OC2C1 (stereo partly drawn) [Example 56]
EC50 (Table 4, cAMP, CHO cells): 1 to 9.9 nM

Compound: O=C(c1ncco1)C1C2CN(C(=O)c3ccc(C[C@@H]4CC[C@H]([C@H](O)c5ccccc5)N4)cc3)CC21 (stereo partly drawn) [Example 234]
EC50 [4]: 10 to 99.9 nM

Compound: O=C(c1ccc(CC2CCC(C(O)c3ccccc3)N2)cc1)N1CC2C(C1)C2Cn1ccnn1 (stereo not drawn) [Example 233]
EC50 [4]: 100 to 999 nM

Compound: O=C(c1ccc(C[C@@H]2CC[C@H]([C@H](O)c3ccccc3)N2)cc1)N1CCC(S(=O)(=O)c2ccc(F)cc2F)CC1 [Example 139]
EC50 (Table 5, cAMP, CHO cells): 10 to 99.9 nM

Compound: N#CC1(c2ccccn2)C2CN(C(=O)c3ccc(C[C@@H]4CC[C@H]([C@H](O)c5ccccc5)N4)cc3)CC21 (stereo partly drawn) [Example 238]
EC50 [4]: 10 to 99.9 nM

Compound: O=C1CC2(CCN(C(=O)c3ccc(C[C@@H]4CC[C@H]([C@H](O)c5cccnc5)N4)cc3)CC2)Sc2ccccc21 [Example 327]
EC50 [3]: 10 to 99.9 nM

Compound: CC(C(=O)N1CCC(C2CC2)CC1)N1CCN(C(=O)c2ccc(C[C@@H]3CC[C@H]([C@H](O)c4ccccc4)N3)cc2)CC1 (stereo partly drawn) [Example 494]
EC50 [5]: 10 to 99.9 nM

Compound: O=C(c1ccc(C[C@@H]2CC[C@H]([C@H](O)c3cccnc3)N2)cc1)N1CCC(S(=O)(=O)c2ccccc2F)CC1 [Example 133]
EC50 (Table 5, cAMP, CHO cells): 10 to 99.9 nM

Compound: O=C(c1ccc(C[C@@H]2CC[C@H]([C@H](O)c3ccccc3)N2)cc1)N1CCN(c2noc3ccccc23)CC1 [Example 385]
EC50 [2]: 10 to 99.9 nM

Compound: CC(c1ccccn1)N1CC2CCC1CN2C(=O)c1ccc(CC2CCC(C(O)c3ccccc3)N2)cc1 (stereo not drawn) [Example 542]
EC50 (Table 11, cAMP, CHO cells): 100 to 999 nM

Compound: O=C(c1ccc(C[C@@H]2CC[C@H]([C@H](O)c3ccccc3)N2)cc1)N1CCN(Cc2nccc3ccccc23)CC1 [Example 429]
EC50 [2]: 10 to 99.9 nM

Compound: C[C@H]1CN(C(=O)c2ccc(C[C@@H]3CC[C@H]([C@H](O)c4ccccc4)N3)cc2)CC[C@@H]1n1cccn1 [Example 62]
EC50 (Table 4, cAMP, CHO cells): 100 to 999 nM

Now from value to molecule:

EC50 [1]: 1 to 9.9 nM
Compound: O=C(c1ccc(CC2CCC(C(O)c3ccccc3)N2)cc1)N1CCN(C2CCc3cccnc32)CC1 (single isomer, unassigned) [Example 598]

EC50 (Table 5, cAMP, CHO cells): 10 to 99.9 nM
Compound: O=C(c1ccc(C[C@@H]2CC[C@H]([C@H](O)c3ccccc3)N2)cc1)N1CCC(N2C(=O)NC3CCCCC32)CC1 (stereo partly drawn) [Example 76]

EC50 [3]: 1 to 9.9 nM
Compound: CC1(C)COC(=O)C12CCN(C(=O)c1ccc(C[C@@H]3CC[C@H]([C@H](O)c4ccccc4)N3)cc1)CC2 [Example 298]

EC50 [3]: 1 to 9.9 nM
Compound: CC1OC(=O)C2(CCN(C(=O)c3ccc(C[C@@H]4CC[C@H]([C@H](O)c5ccccc5)N4)cc3)CC2)C1C (stereo partly drawn) [Example 297]

EC50 (Table 5, cAMP, CHO cells): 10 to 99.9 nM
Compound: O=C(c1ncco1)C1CCN(C(=O)c2ccc(C[C@@H]3CC[C@H]([C@H](O)c4ccccc4)N3)cc2)CC1 [Example 120]

EC50 [1]: 10 to 99.9 nM
Compound: O=C(c1ccc(CC2CCC(C(O)c3ccccc3)N2)cc1)N1CCC2(CC1)CC(C(F)(F)F)OC2=O (single isomer, unassigned) [Example 566]

EC50 [5]: 1 to 9.9 nM
Compound: CC(C(=O)O)N1CCN(C(=O)c2ccc(C[C@@H]3CC[C@H]([C@H](O)c4ccccc4)N3)cc2)CC1 (stereo partly drawn) [Example 433]

EC50 [3]: 100 to 999 nM
Compound: O=C(c1ccc(C[C@@H]2CC[C@H]([C@H](O)c3ccccc3)N2)cc1)N1CCC2(CCCC2O)CC1 (stereo partly drawn) [Example 314]

EC50 [5]: 100 to 999 nM
Compound: CC(C(=O)N1CCCCCC1)N1CCN(C(=O)c2ccc(C[C@@H]3CC[C@H]([C@H](O)c4ccccc4)N3)cc2)CC1 (stereo partly drawn) [Example 511]

EC50 [3]: 100 to 999 nM
Compound: O=C(c1ccc(C[C@@H]2CC[C@H]([C@H](O)c3ccccc3)N2)cc1)N1CCC(C(=O)O)(c2ccccc2)CC1 [Example 241]

EC50 (Table 5, cAMP, CHO cells): 100 to 999 nM
Compound: Cc1nnn(C2CCN(C(=O)c3ccc(C[C@@H]4CC[C@H]([C@H](O)c5ccccc5)N4)cc3)CC2)n1 [Example 104]

EC50 [2]: 100 to 999 nM
Compound: O=C(O)CN1CCN(C(=O)c2ccc(C[C@@H]3CC[C@H]([C@H](O)c4ccccc4)N3)cc2)CC1 [Example 390]
